Patent US11793849B2, “Method of Chinese herbal medicine extract used for treating multiple diseases caused by drug resistant bacteria infection” (priority 2016, dated 2023)
Converted amounts (≈) assume the structure as drawn. Where two headings read alike, the source gives them in different places.

System: MDRPA
Experiment: MIC determination, microdilution broth method;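 note: broth microdilution per NCCLS recommendations, testing Pithecellobium clypearia water or ethanol extracts against multidrug-resistant Pseudomonas aeruginosa, with MIC50 and MIC90 derived statistically from individual MICs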
[1] = 20 MDRPAs, EA = 60% ethanol extract
[2] = 20 MDRPAs, EA = 95% ethanol extract
[3] = MDRPAs P1-P20, single use, EA=P. clypearia 10% ethanol extract
[4] = MDRPAs P1-P20, single use, EA=P. clypearia water extract
[5] = single use, 20 MDRPAs, section of the 10% ethanol extract
[6] = single use, 20 MDRPAs, section of the 60% ethanol extract
[7] = single use, 20 MDRPAs, section of the 95% ethanol extract

Description: Determination methods of a Minimal Inhibitory Concentration (MIC) and a Minimum Bactericidal Concentration (MBC) of a test product: the MIC and the MBC of the Pithecellobium clypearia Benth water or ethanol extract to the MDRAB are determined by a microdilution broth method. And it is operated by referring to the microdilution broth method recommended by National Committee for Clinical Laboratory Standards (NCCLS).
By determining the MIC and the MBC of the drug and making statistics of the data to obtain MIC50, MIC90, MBC50 and MBC90, the effect of the MDRA resistance of the drug is evaluated.
Test method: the MDRPA (serial No.: P1-P20) strains are tested and are evaluated with reference to the method in the first embodiment.

NCC[C@H](O)C(=O)N[C@@H]1C[C@H](N)[C@@H](O[C@H]2O[C@H](CN)[C@@H](O)[C@H](O)[C@H]2O)[C@H](O)[C@H]1O[C@H]1O[C@H](CO)[C@@H](O)[C@H](N)[C@H]1O [AMK, Amikacin]
MIC50 [1]: 1 µg/mL (≈ 1.71 µM) | MIC90 [1]: 32 µg/mL (≈ 54.6 µM) | MIC Range [1]: 1 to 256 µg/mL | MIC50 [2]: 1 µg/mL (≈ 1.71 µM) | MIC90 [2]: 32 µg/mL (≈ 54.6 µM) | MIC Range [2]: 1 to 256 µg/mL | MIC50 [3]: 1 µg/mL (≈ 1.71 µM) | MIC90 [3]: 32 µg/mL (≈ 54.6 µM) | MIC Range [3]: 1 to 256 µg/mL | MIC50 [4]: 1 µg/mL (≈ 1.71 µM) | MIC90 [4]: 32 µg/mL (≈ 54.6 µM) | MIC Range [4]: 1 to 256 µg/mL | MIC50 (Pseudomonas aeruginosa): 1 µg/mL (≈ 1.71 µM) | MIC90 (Pseudomonas aeruginosa): 32 µg/mL (≈ 54.6 µM) | MIC (Pseudomonas aeruginosa, read-out: MIC (single use), strain P1, EA=P. clypearia 10% ethanol extract): 1 µg/mL (≈ 1.71 µM) | MIC (Pseudomonas aeruginosa, read-out: MIC (single use), strain P1, EA=P. clypearia water extract): 1 µg/mL (≈ 1.71 µM) | MIC (Pseudomonas aeruginosa, read-out: MIC (single use), strain P2, EA=P. clypearia 10% ethanol extract): 1 µg/mL (≈ 1.71 µM) | MIC (Pseudomonas aeruginosa, read-out: MIC (single use), strain P2, EA=P. clypearia water extract): 1 µg/mL (≈ 1.71 µM) | MIC (Pseudomonas aeruginosa, read-out: MIC (single use), strain P3, EA=P. clypearia 10% ethanol extract): 4 µg/mL (≈ 6.83 µM) | MIC (Pseudomonas aeruginosa, read-out: MIC (single use), strain P3, EA=P. clypearia water extract): 4 µg/mL (≈ 6.83 µM) | MIC (Pseudomonas aeruginosa, read-out: MIC (single use), strain P4, EA=P. clypearia 10% ethanol extract): 1 µg/mL (≈ 1.71 µM) | MIC (Pseudomonas aeruginosa, read-out: MIC (single use), strain P4, EA=P. clypearia water extract): 1 µg/mL (≈ 1.71 µM) | MIC (Pseudomonas aeruginosa, read-out: MIC (single use), strain P5, EA=P. clypearia 10% ethanol extract): 2 µg/mL (≈ 3.42 µM) | MIC (Pseudomonas aeruginosa, read-out: MIC (single use), strain P5, EA=P. clypearia water extract): 2 µg/mL (≈ 3.42 µM) | MIC (Pseudomonas aeruginosa, read-out: MIC (single use), strain P6, EA=P. clypearia 10% ethanol extract): 256 µg/mL (≈ 437 µM) | MIC (Pseudomonas aeruginosa, read-out: MIC (single use), strain P6, EA=P. clypearia water extract): 256 µg/mL (≈ 437 µM) | MIC (Pseudomonas aeruginosa, read-out: MIC (single use), strain P7, EA=P. clypearia 10% ethanol extract): 1 µg/mL (≈ 1.71 µM) | MIC (Pseudomonas aeruginosa, read-out: MIC (single use), strain P7, EA=P. clypearia water extract): 1 µg/mL (≈ 1.71 µM) | MIC (Pseudomonas aeruginosa, read-out: MIC (single use), strain P8, EA=P. clypearia 10% ethanol extract): 1 µg/mL (≈ 1.71 µM) | MIC (Pseudomonas aeruginosa, read-out: MIC (single use), strain P8, EA=P. clypearia water extract): 1 µg/mL (≈ 1.71 µM) | MIC (Pseudomonas aeruginosa, read-out: MIC (single use), strain P9, EA=P. clypearia 10% ethanol extract): 1 µg/mL (≈ 1.71 µM) | MIC (Pseudomonas aeruginosa, read-out: MIC (single use), strain P9, EA=P. clypearia water extract): 1 µg/mL (≈ 1.71 µM) | MIC (Pseudomonas aeruginosa, read-out: MIC (single use), strain P10, EA=P. clypearia 10% ethanol extract): 4 µg/mL (≈ 6.83 µM) | MIC (Pseudomonas aeruginosa, read-out: MIC (single use), strain P10, EA=P. clypearia water extract): 4 µg/mL (≈ 6.83 µM) | MIC (Pseudomonas aeruginosa, read-out: MIC (single use), strain P11, EA=P. clypearia 10% ethanol extract): 1 µg/mL (≈ 1.71 µM) | MIC (Pseudomonas aeruginosa, read-out: MIC (single use), strain P11, EA=P. clypearia water extract): 1 µg/mL (≈ 1.71 µM) | MIC (Pseudomonas aeruginosa, read-out: MIC (single use), strain P12, EA=P. clypearia 10% ethanol extract): 32 µg/mL (≈ 54.6 µM) | MIC (Pseudomonas aeruginosa, read-out: MIC (single use), strain P12, EA=P. clypearia water extract): 32 µg/mL (≈ 54.6 µM) | MIC (Pseudomonas aeruginosa, read-out: MIC (single use), strain P13, EA=P. clypearia 10% ethanol extract): 2 µg/mL (≈ 3.42 µM) | MIC (Pseudomonas aeruginosa, read-out: MIC (single use), strain P13, EA=P. clypearia water extract): 2 µg/mL (≈ 3.42 µM) | MIC (Pseudomonas aeruginosa, read-out: MIC (single use), strain P14, EA=P. clypearia 10% ethanol extract): 2 µg/mL (≈ 3.42 µM) | MIC (Pseudomonas aeruginosa, read-out: MIC (single use), strain P14, EA=P. clypearia water extract): 2 µg/mL (≈ 3.42 µM) | MIC (Pseudomonas aeruginosa, read-out: MIC (single use), strain P15, EA=P. clypearia 10% ethanol extract): 2 µg/mL (≈ 3.42 µM) | MIC (Pseudomonas aeruginosa, read-out: MIC (single use), strain P15, EA=P. clypearia water extract): 2 µg/mL (≈ 3.42 µM) | MIC (Pseudomonas aeruginosa, read-out: MIC (single use), strain P16, EA=P. clypearia 10% ethanol extract): 256 µg/mL (≈ 437 µM) | MIC (Pseudomonas aeruginosa, read-out: MIC (single use), strain P16, EA=P. clypearia water extract): 256 µg/mL (≈ 437 µM) | MIC (Pseudomonas aeruginosa, read-out: MIC (single use), strain P17, EA=P. clypearia 10% ethanol extract): 1 µg/mL (≈ 1.71 µM) | MIC (Pseudomonas aeruginosa, read-out: MIC (single use), strain P17, EA=P. clypearia water extract): 1 µg/mL (≈ 1.71 µM) | MIC (Pseudomonas aeruginosa, read-out: MIC (single use), strain P18, EA=P. clypearia 10% ethanol extract): 16 µg/mL (≈ 27.3 µM) | MIC (Pseudomonas aeruginosa, read-out: MIC (single use), strain P18, EA=P. clypearia water extract): 16 µg/mL (≈ 27.3 µM) | MIC (Pseudomonas aeruginosa, read-out: MIC (single use), strain P19, EA=P. clypearia 10% ethanol extract): 1 µg/mL (≈ 1.71 µM) | MIC (Pseudomonas aeruginosa, read-out: MIC (single use), strain P19, EA=P. clypearia water extract): 1 µg/mL (≈ 1.71 µM) | MIC (Pseudomonas aeruginosa, read-out: MIC (single use), strain P20, EA=P. clypearia 10% ethanol extract): 2 µg/mL (≈ 3.42 µM) | MIC (Pseudomonas aeruginosa, read-out: MIC (single use), strain P20, EA=P. clypearia water extract): 2 µg/mL (≈ 3.42 µM) | MIC50 [5]: 1 µg/mL (≈ 1.71 µM) | MIC90 [5]: 32 µg/mL (≈ 54.6 µM) | MIC50 [6]: 1 µg/mL (≈ 1.71 µM) | MIC90 [6]: 32 µg/mL (≈ 54.6 µM) | MIC50 [7]: 1 µg/mL (≈ 1.71 µM) | MIC90 [7]: 32 µg/mL (≈ 54.6 µM)
